Six molecules from patent publication US8486996B2, “Aroylfuranes and aroylthiophenes” (Basilea Pharmaceutica AG, priority 2006, dated 2013) can be followed below.

Series [1] is described as follows: Hoechst 33342 nuclear staining (48 h read-out). It is filed as cell-based. The procedure, abridged:
(§1)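 Adherent cells pre-spread 24 h before dosing, suspension cells dosed at seeding; compounds at 0.001 μM-10 μM final, 48 h at culture conditions. Hoechst 33342 (2-5 μg/ml) added for 30 min, then fluorescence microscopy scoring of apoptotic nuclear fraction and apoptosis-specific morphology, reported as scores A-D.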

Series [2] relates to tumor cells. The series can be described thus: Hoechst 33342 nuclear staining (48 h read-out). The series is classed as cell-based. The procedure, abridged:
as §1

Series [3] in a line: Mitochondrial membrane potential, JC-1 (read-out 48 h). The series is classed as cell-based. The settings on record: PBL, JC-1, 48 h. The procedure, abridged:
(§2)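 Tumor cells were treated with test compounds (adherent cells after 24 h of attachment, suspension cells immediately), medium holding up to 5% DMSO. After 48 h, JC-1 (2-5 μg/ml in added medium) was applied for 30 min. Fluorescence microscopy (FITC/TRITC filters) scored the fraction of cells with dissipated mitochondrial membrane potential as categories A-D.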

Series [4] has as its system tumor cells. The series is described as above. It is filed as cell-based. The settings on record: JC-1, 48 h. In short, it runs like this:
as §2

Series [5] is described as follows: MTS proliferation assay (72 h read-out). It is filed as cell-based. The conditions noted are these: Homo sapiens, MRC5 cells. The procedure, abridged:
(§3)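 Viability was read by MTS absorbance at 492 nm after 3 h with reagent. Before that, cells plated a day earlier at 1.5×10^3–10^4 per well had been incubated with test compound at final concentrations of 0.001–10 μM for 72 h; activity is given as category scores A–D.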
(In general: Tetrazolium dyes change colour on reduction, which living cells bring about.)

In series [6] the test system is tumor cells. Put plainly: MTS proliferation assay (72 h read-out). It is filed as cell-based. The procedure, abridged:
as §3

Where [7] appears, read: Homo sapiens, MRC5 cells, read-out: Hoechst 33342 nuclear staining EC50, MRC5.
Setting [8] is: PBL, read-out: Hoechst 33342 nuclear staining EC50, PBL.
Setting [9] is: Homo sapiens, HeLa cells, read-out: Hoechst 33342 nuclear staining EC50, HeLa.
Where [10] appears, read: Homo sapiens, Jurkat cells, read-out: Hoechst 33342 nuclear staining EC50, Jurkat.
Setting [11] is: Jily cells, read-out: Hoechst 33342 nuclear staining EC50, Jily.
Setting [12] is: Homo sapiens, HeLa cells, read-out: Mitochondrial membrane potential (read-out 48 h) HeLa.
Where [13] appears, read: Homo sapiens, Jurkat cells, read-out: Mitochondrial membrane potential (read-out 48 h) Jurkat.
Where [14] appears, read: Homo sapiens, MCF7 cells, read-out: Mitochondrial membrane potential (read-out 48 h) MCF7.
[15] abbreviates: Jily cells, read-out: Mitochondrial membrane potential (read-out 48 h) Jily.
Setting [16] is: Homo sapiens, HT-1080, HT1080 cells, read-out: MTS proliferation assay IC50, HT1080.
The mark [17] stands for this setting: Homo sapiens, HeLa cells, read-out: MTS proliferation assay IC50, HeLa.
[18] abbreviates: Homo sapiens, Jurkat cells, read-out: MTS proliferation assay IC50, Jurkat.
Where [19] appears, read: Jily cells, read-out: MTS proliferation assay IC50, Jily.

Structures are written as SMILES. Read-outs that look alike come from different tables or passages of the source.

Regarding `CCOc1cc(OC)c(Br)cc1C(=O)c1oc2ccc(Cl)cc2c1N` [Example 23], the melting point is 132 to 133 °C. In series [1] (setting [7]), the EC50 was above 1 µM. Further, the EC50 in series [1] (setting [8]) is above 1 µM. In the series on tumor cells [2] (setting [9]), the EC50 is above 1 µM. Also, the EC50 in the series on tumor cells [2] (setting [10]) lay within 0.1 to 1 µM. For the same molecule, in the series with tumor cells [2] (setting [11]), the EC50 lay in the range of 0.1 to 1 µM. Also, in series [3], the EC50 is above 1 µM. In the series with tumor cells [4] (setting [12]), the EC50 is above 1 µM. Besides, the EC50 in the series on tumor cells [4] (setting [13]) is 0.1 to 1 µM. For the same molecule, in the series with tumor cells [4] (setting [14]), the EC50 is above 1 µM. For the same molecule, the EC50 in the series on tumor cells [4] (setting [15]) was above 1 µM. Also, the IC50 in series [5] is above 1 µM. Further, the IC50 in the series on tumor cells [6] (setting [16]) was above 1 µM. Further, the IC50 in the series with tumor cells [6] (setting [17]) is above 1 µM. Moreover, the IC50 in the series with tumor cells [6] (setting [18]) was 0.1 to 1 µM. For the same molecule, the IC50 in the series with tumor cells [6] (setting [19]) is 0.1 to 1 µM.

For the molecule `CCOc1c(OC)cccc1C(=O)c1oc2ccc(Cl)cc2c1N` [Example 24], the melting point is 121 to 124 °C. The EC50 in series [1] (setting [7]) was above 1 µM. The EC50 in series [1] (setting [8]) was above 1 µM. In addition, the EC50 in the series with tumor cells [2] (setting [9]) is above 1 µM. The EC50 in the series on tumor cells [2] (setting [10]) is above 1 µM. In the series with tumor cells [2] (setting [11]), the EC50 was above 1 µM. Moreover, the EC50 in series [3] was above 1 µM. For the same molecule, in the series with tumor cells [4] (setting [12]), the EC50 was above 1 µM. Further, the EC50 in the series on tumor cells [4] (setting [13]) was above 1 µM. Moreover, the EC50 in the series with tumor cells [4] (setting [14]) is above 1 µM. Moreover, the EC50 with tumor cells [4] (setting [15]) is above 1 µM. For the same molecule, the IC50 in series [5] was above 1 µM. The IC50 in the series on tumor cells [6] (setting [16]) was above 1 µM. In addition, the IC50 in the series with tumor cells [6] (setting [17]) is above 1 µM. Further, the IC50 with tumor cells [6] (setting [18]) was above 1 µM. Besides, in the series on tumor cells [6] (setting [19]), the IC50 was above 1 µM.

In turn, `CCOc1c(C)cccc1C(=O)c1oc2ccc(Cl)cc2c1N` [Example 25] had a melting point of 54 °C. In addition, in series [1] (setting [7]), the EC50 is above 1 µM. The EC50 in series [1] (setting [8]) was above 1 µM. Also, the EC50 in the series with tumor cells [2] (setting [9]) was above 1 µM. In addition, the EC50 in the series on tumor cells [2] (setting [10]) is 0.1 to 1 µM. Also, the EC50 with tumor cells [2] (setting [11]) fell in the range of 0.1 to 1 µM. Moreover, the EC50 in series [3] was above 1 µM. In addition, in the series with tumor cells [4] (setting [12]), the EC50 is above 1 µM. For the same molecule, the EC50 with tumor cells [4] (setting [13]) is 0.1 to 1 µM. In addition, the EC50 in the series on tumor cells [4] (setting [14]) is above 1 µM. Also, in the series with tumor cells [4] (setting [15]), the EC50 lay within 0.1 to 1 µM. The IC50 in series [5] was above 1 µM. Further, the IC50 in the series with tumor cells [6] (setting [16]) was above 1 µM. For the same molecule, the IC50 in the series on tumor cells [6] (setting [17]) was above 1 µM. Moreover, the IC50 with tumor cells [6] (setting [18]) is 0.1 to 1 µM. Moreover, the IC50 in the series with tumor cells [6] (setting [19]) fell in the range of 0.1 to 1 µM.

`CCOc1ccc(Cl)cc1C(=O)c1oc2nc(C)ccc2c1N` [Example 27] registered a melting point of 174 to 176 °C. Further, in series [1] (setting [7]), the EC50 is above 1 µM. The EC50 in series [1] (setting [8]) is above 1 µM. In addition, the EC50 with tumor cells [2] (setting [9]) fell in the range of 0.01 to 0.1 µM. In the series with tumor cells [2] (setting [10]), the EC50 was below 0.01 µM. Further, the EC50 in the series with tumor cells [2] (setting [11]) is 0.01 to 0.1 µM. Moreover, in series [3], the EC50 was above 1 µM. The EC50 in the series on tumor cells [4] (setting [12]) fell in the range of 0.01 to 0.1 µM. Also, the EC50 in the series with tumor cells [4] (setting [13]) is 0.01 to 0.1 µM. The EC50 in the series on tumor cells [4] (setting [14]) lay in the range of 0.1 to 1 µM. For the same molecule, the EC50 in the series with tumor cells [4] (setting [15]) fell in the range of 0.01 to 0.1 µM. Further, the IC50 in series [5] fell in the range of 0.01 to 0.1 µM. Besides, the IC50 in the series with tumor cells [6] (setting [16]) is 0.01 to 0.1 µM. Further, in the series on tumor cells [6] (setting [17]), the IC50 was in the range of 0.01 to 0.1 µM. Also, in the series on tumor cells [6] (setting [18]), the IC50 lay within 0.01 to 0.1 µM. The IC50 with tumor cells [6] (setting [19]) fell in the range of 0.01 to 0.1 µM.

As to `CCOc1ccccc1C(=O)c1oc2nc(C)ccc2c1N` [Example 28], the melting point fell in the range of 156 to 158 °C. Also, the EC50 in series [1] (setting [7]) is above 1 µM. Further, the EC50 in series [1] (setting [8]) was above 1 µM. For the same molecule, the EC50 with tumor cells [2] (setting [9]) is 0.1 to 1 µM. For the same molecule, the EC50 in the series with tumor cells [2] (setting [10]) lay within 0.01 to 0.1 µM. Also, the EC50 in the series on tumor cells [2] (setting [11]) lay in the range of 0.01 to 0.1 µM. The EC50 in series [3] was above 1 µM. Further, the EC50 in the series with tumor cells [4] (setting [12]) was 0.1 to 1 µM. Besides, the EC50 in the series on tumor cells [4] (setting [13]) fell in the range of 0.01 to 0.1 µM. Besides, the EC50 in the series with tumor cells [4] (setting [14]) was above 1 µM. Besides, the EC50 in the series on tumor cells [4] (setting [15]) was 0.1 to 1 µM. Besides, the IC50 in series [5] fell in the range of 0.1 to 1 µM. For the same molecule, the IC50 in the series with tumor cells [6] (setting [16]) was in the range of 0.1 to 1 µM. In addition, the IC50 in the series on tumor cells [6] (setting [17]) fell in the range of 0.1 to 1 µM. Moreover, the IC50 with tumor cells [6] (setting [18]) was in the range of 0.01 to 0.1 µM. Besides, the IC50 with tumor cells [6] (setting [19]) lay within 0.01 to 0.1 µM.

`CCOc1ccc(Cl)cc1C(=O)COc1nc(C)ccc1C#N` [Example 146]: the melting point was 138 to 140 °C. Moreover, the EC50 in series [1] (setting [7]) lay within 0.1 to 1 µM. For the same molecule, in series [1] (setting [8]), the EC50 was above 1 µM. In addition, the EC50 with tumor cells [2] (setting [9]) lay in the range of 0.1 to 1 µM. Further, the EC50 in the series with tumor cells [2] (setting [10]) fell in the range of 0.01 to 0.1 µM. Also, the EC50 in the series with tumor cells [2] (setting [11]) is 0.1 to 1 µM. Also, the EC50 in series [3] is above 1 µM. Also, the EC50 in the series with tumor cells [4] (setting [12]) is 0.1 to 1 µM. The EC50 in the series with tumor cells [4] (setting [13]) lay within 0.01 to 0.1 µM. Also, the EC50 with tumor cells [4] (setting [14]) was 0.1 to 1 µM.

The term melting point denotes the temperature of the solid-liquid transition.
